Measured values published in patent publication US10793509B2, “Compounds useful in the treatment of neoplastic diseases” (UNIVERSITÄT ZU KÖLN, priority 2013, dated 2020).

Assays:
[1] = test system: SW480, MelJuso, HCC44, SH2 and COLO704 cell lines; assay type: cell-based; details: 24 h, 0.01-100 μM
Protocol: In the following experiment the possible therapeutic window for NO-ASA derivatives was investigated. […] The melanoma cell line MelJuso, the colon carcinoma cell line SW480, the small cell lung cancer cell line HCC44, the ovarian adenocarcinoma cell line COLO704 and the acute myeloid leukemia cell line SH2 were treated with concentrations of p-NO-ASA and B9, B12 and B13 in a range between 0.01 μM and 100 μM for 24 h, followed by addition of luminogenic CellTiter-Glo® reagent.

EHEB = assay: CellTiter-Glo ATP assay, EHEB cell line; assay type: cell-based; details: 24 h, 0.01-1000 μM
Protocol: (§1) Several cell lines (n=5) were treated with different concentrations of p-NO-ASA, B9, B12 and B13 ranging between 0.01 μM and 1000 μM for 24 hours followed by addition of luminogenic CellTiter-Glo®-reagent. […] For each cell line the order of used compound in the bar chart is from left to right as following: p-NO-ASA, B9, B12, B13.
(§2) Treatment success in CLL may depend on cytogenetic and molecular parameters as for instance del13q or TP53 gene disruption. Therefore, the NO-ASA derivatives were examined on (chronic) B cell lymphoma cell lines with different geno- and phenotypes (JVM3, EHEB, U2932, MEC-1, GRANTA-519). The cells were treated with concentrations between 0.01 and 1000 μM for 24 h followed by the addition of luminogenic CellTiter-Glo® reagent.

MEC-1 = assay: CellTiter-Glo ATP assay, MEC-1 cell line; assay type: cell-based; details: 24 h
Protocol: as §1, §2

GRANTA-519 = assay: CellTiter-Glo ATP assay, GRANTA-519 cell line; assay type: cell-based; details: 24 h
Protocol: as §1, §2

[2] = test system: phosphorylated NFkappaBp65 protein; assay: Western blot of NFkappaB phosphorylation status in CLL cells; assay type: cell-based, human; details: 3 h
Protocol: CLL cells were treated with B1, B9, B12 and B13 (0.1 μM, 1 μM, 10 μM) for 3 h. Untreated and DMSO (1%) treated cells served as control. GAPDH=loading control.
The BCR signalling pathway plays an important pathogenic role in CLL and lymphomas leading often to a constitutive active NFkappaB (in this state NFkappaB is phosphorylated). Therefore the influence of the derivatives on the phosphorylation status of NFkappaB was analyzed by Western Blot. CLL cells were treated with 0.1 μM, 1 μM or 10 μM of each derivate, respectively, for 3 h. CLL cells were treated with B1, B9, B12 and B13 (0.1 μM, 1 μM, 10 μM) for 3 h. Untreated and DMSO (1%) treated cells served as control. GAPDH=loading control.

caspases 3 and 7 = assay: caspase-3/7 assay in CLL cells; assay type: cell-based; details: Homo sapiens, CLL cell, 6 h, 0.01-20 μM, luminogenic caspase-3/7-substrate, read-out: activation of caspases 3 and 7, EC50
Source text: FIG. 8 depicts the involvement of caspase-mediated apoptosis in CLL cells upon treatment with p-NO-ASA, B9, B12 and B13. Representative blots of 3 independent experiments are shown. Untreated and DMSO (1%) treated cells served as control. beta-actin=loading control (FIG. 8A). para-NO-ASA and B9 induced a concentration-dependent increase in caspase-3/7-activation (FIG. 8B).
To determine whether the toxicity on CLL cells is due to caspase-mediated apoptosis, the cleavage of PARP (Poly(ADP-ribose)-Polymerase 1) and XIAP (X-linked inhibitor of apoptosis) was analyzed by immunoblot. CLL cells were cultured alone, with 1% DMSO or with EC50 of p-NO-ASA, meta-NO-ASA, B9, B12 and B13 for 24 h followed by protein lysation and western blot analysis using antibodies to detect prognostic apoptotic proteins (XIAP, PARP). […] All compounds tested induced PARP and XIAP cleavage (FIG. 8A). Further a caspase-3/7 assay was carried out. CLL cells were incubated with para-NO-ASA and B9 in different concentrations ranging from 0.01 μM to 20 μM for 6 h followed by addition of luminogenic caspase-3/7-substrate. This indicates the reduction of the survival of CLL cells upon treatment with p-NO-ASA and B9 due to the induction of caspase-mediated apoptosis.

U2932 = assay: CellTiter-Glo ATP assay, U2932 cell line; assay type: cell-based; details: 24 h, 0.01-1000 μM
Protocol: as §1, §2

Primary CLL cells = assay: AnnexinV/PI assay on primary CLL cells; assay type: cell-based, human
Protocol: (§3) PBMCs or CLL cells (5*10^6 cells/ml) were incubated for 24 h with different compounds at concentrations from 0.01 to 100 μM. Cell survival was normalized to DMSO control [vehicle]. See Example 1.
(§4) Primary CLL or peripheral blood mononuclear cells of healthy donors (5*10^6/ml) were incubated for 24 h with different compounds according to the invention and NO-ASA as a control. The compounds were added in different concentrations, in particular in concentrations from 0.01-100 μM. Cell survival was assessed by AnnexinV/PI assay (Kit commercially available, e.g. by Biotium Inc, USA; or Phoenix Flow Systems, US), the results were normalized to DMSO control [vehicle] and dose response curves were calculated using a non-linear regression model.

[3] = test system: peripheral blood mononuclear cells (PBMCs) of healthy donors; assay: AnnexinV/PI assay on PBMCs of healthy donors; assay type: cell-based; details: Homo sapiens, PBMC; 24 h incubation, 0.01-100 μM, 5*10^6 cells/ml, normalized to DMSO control; read-out: AnnexinV/PI assay EC50 PBMCs
Protocol: as §3, §4

JVM-3 = assay: CellTiter-Glo ATP assay, JVM-3 cell line; assay type: cell-based, human; details: 24 h, 0.01-1000 μM
Protocol: as §1, §2

[4] = 0.01-1000 μM, compared to B9, B12, B13

SMILES: CC(=O)Oc1ccccc1C(=O)Oc1ccc(CO[N+](=O)[O-])cc1 [B1, 4-(nitrooxy)methyl phenyl-2-acetoxy benzoate, reference compound]
- ATP content in SW480, MelJuso, HCC44, SH2 and COLO704 cell lines [1]: reduced ATP content
- ATP content in EHEB (EHEB): reduced ATP content
- effectiveness in MEC-1 (ATP content) (MEC-1; [4]): significantly less effective
- EC50 (MEC-1; Homo sapiens, MEC1, CellTiter-Glo): 53.4 µM
- effectiveness in GRANTA-519 (ATP content) (GRANTA-519; [4]): significantly less effective
- EC50 (GRANTA-519; Homo sapiens, Granta-519, CellTiter-Glo): 22.2 µM
- reduction of NFkappaB activity (phosphorylated NFkappaBp65) ([2]; CLL cells, 0.1, 1, 10 μM): concentration dependent reduction
- concentration inducing the reduction of NFkappaB p65 protein ([2]; CLL cells): twofold concentration
- EC50 (caspases 3 and 7): 1.84 µM
- ATP content in U2932 (U2932): reduced ATP content
- selectivity for CLL cells compared to PBMCs (Primary CLL cells; FIG. 3, sensitivity of CLL cells vs PBMCs, 24 h): selective for CLL cells
- EC50 (Primary CLL cells; Homo sapiens, CLL cell, 24 h incubation, 0.01-100 μM, 5*10^6 cells/ml, normalized to DMSO control, read-out: AnnexinV/PI assay EC50 Primary CLL): 6.7 µM
- EC50 [3]: 47.2 µM
- ATP content in JVM-3 (JVM-3): reduced ATP content
